Laboratory results: US20230391736A1, “3-TETRAZOLYLMETHYL-1,3,5-TRIAZIN-2,4-DIONE COMPOUND INHIBITING CORONAVIRUS 3CL PROTEASE ACTIVITY AND PREPARATION METHOD AND USE THEREOF” (priority 2022, published 2023)
Where two headings read alike, the source gives them in different places.

Tests used:
SARS-CoV-2 3CL^pro = SARS-CoV-2 3CL^pro (Severe acute respiratory syndrome coronavirus 2 (2019-nCoV) (SARS-CoV-2), UniProt P0DTD1); experiment: biochemical; details: for IC50: FRET
A549 cells = experiment: In-vitro cytotoxicity by the MTT method, A549 cells; details: 24 hrs
Procedure: (§1) The in-vitro cytotoxicity of Compounds 1, 12, and 17 was evaluated by the MTT method. HepG2, HEK293 and A549 cells in logarithmic growth phase were respectively trypsinized into a cell suspension. The cell density was adjusted to 5×10^4 cells/mL. 180 μL per well of the cell suspension was inoculated into a sterile 96-well plate at 37° C., and cultured in an incubator at 5% CO2 for 24 hrs. After the cells were attached to the bottom of the plate, 20 μL of the drug solutions over the concentration gradients were respectively added into each well, and 6 replicate wells were set in parallel. Also, a blank group (group without cells and drug) and a control group (group without drug) were set. The system was incubated in an incubator at 37° C. and 5% CO2 for 24 hrs, and then 20 μL per well of a 5 g/L MTT solution was added and incubated for another 4 hrs. After the incubation was completed, the culture medium in the well was gently aspirated, and 100 μL of DMSO was added to each well. Then the crystal was fully dissolved in a shaker for 10 min at a low speed. After that, the absorbency of each well was measured at OD490 nm in an enzymelinked immunodetector, and the survival rate of cells was calculated.

HEK293 cells = experiment: In-vitro cytotoxicity by the MTT method, HEK293 cells; details: 24 hrs
Procedure: as §1

HepG2 cells = experiment: In-vitro cytotoxicity by the MTT method, HepG2 cells; details: 24 hrs
Procedure: as §1

[1] = class symbols, read-out: IC50 (nM), inhibitory activity against 3CL^pro
[2] = non-linear regression, read-out: IC50 against 3CL^pro

Cc1ccc(Cn2c(Nc3cc4cn(C)nc4cc3Cl)nc(=O)n(Cc3nnn[nH]3)c2=O)cc1 [Compound 3, (E)-3-(1H-tetrazol-5-yl)methyl)-6-(6-chloro-2-methyl-2H-indazol-5-yl)imino)-1-(4-methylbenzyl)-1,3,5-triazin-2,4-dione]
IC50 (SARS-CoV-2 3CL^pro; [1]): 500 to 1000 nM

CCn1nnnc1Cn1c(=O)[nH]/c(=N\c2cc3cn(C)nc3cc2Cl)n(Cc2ccc(Cl)cc2)c1=O [Compound 20]
IC50 (SARS-CoV-2 3CL^pro; [1]): 200 to 500 nM

Cn1cc2cc(/N=c3\[nH]c(=O)n(Cc4nnn[nH]4)c(=O)n3Cc3ccc(Cl)cc3)c(Cl)cc2n1 [Compound 5]
IC50 (SARS-CoV-2 3CL^pro; [1]): 200 to 500 nM

COc1cc(Cn2c(=O)n(Cc3nnn[nH]3)c(=O)[nH]/c2=N\c2cc3cn(C)nc3cc2Cl)cc(OC)c1 [Compound 14]
IC50 (SARS-CoV-2 3CL^pro; [1]): 500 to 1000 nM

Cc1cc(C)cc(Cn2c(=O)n(Cc3nnn[nH]3)c(=O)[nH]/c2=N\c2cc3cn(C)nc3cc2Cl)c1 [Compound 13]
IC50 (SARS-CoV-2 3CL^pro; [1]): 500 to 1000 nM

Cn1cc2cc(/N=c3\[nH]c(=O)n(Cc4nnn[nH]4)c(=O)n3Cc3ccc(C(C)(C)C)cc3)c(Cl)cc2n1 [Compound 4]
IC50 (SARS-CoV-2 3CL^pro; [1]): 500 to 1000 nM

Cn1cc2cc(/N=c3\[nH]c(=O)n(Cc4nnn[nH]4)c(=O)n3Cc3ccc([N+](=O)[O-])cc3)c(Cl)cc2n1 [Compound 9]
IC50 (SARS-CoV-2 3CL^pro; [1]): > 1000 nM

Cn1cc2cc(/N=c3\[nH]c(=O)n(Cc4nnn[nH]4)c(=O)n3Cc3ccc(F)cc3)c(Cl)cc2n1 [Compound 12]
IC50 (SARS-CoV-2 3CL^pro; [1]): < 200 nM | IC50 (SARS-CoV-2 3CL^pro; [2]): 184 nM | inhibition at 0.0001 µM (SARS-CoV-2 3CL^pro; concentration 0.1 nM, read-out: inhibition percentage of 3CL^pro): 0.52% | inhibition at 0.001 µM (SARS-CoV-2 3CL^pro; concentration 1 nM, read-out: inhibition percentage of 3CL^pro): 1.86% | inhibition at 0.005 µM (SARS-CoV-2 3CL^pro; concentration 5 nM, read-out: inhibition percentage of 3CL^pro): 4.98% | inhibition at 0.01 µM (SARS-CoV-2 3CL^pro; concentration 10 nM, read-out: inhibition percentage of 3CL^pro): 7.28% | inhibition at 0.02 µM (SARS-CoV-2 3CL^pro; concentration 20 nM, read-out: inhibition percentage of 3CL^pro): 9.3% | inhibition at 0.03 µM (SARS-CoV-2 3CL^pro; concentration 30 nM, read-out: inhibition percentage of 3CL^pro): 12.3% | inhibition at 0.05 µM (SARS-CoV-2 3CL^pro; concentration 50 nM, read-out: inhibition percentage of 3CL^pro): 18.8% | inhibition at 0.1 µM (SARS-CoV-2 3CL^pro; concentration 100 nM, read-out: inhibition percentage of 3CL^pro): 40% | inhibition at 0.5 µM (SARS-CoV-2 3CL^pro; concentration 500 nM, read-out: inhibition percentage of 3CL^pro): 70.2% | inhibition at 1 µM (SARS-CoV-2 3CL^pro; concentration 1000 nM, read-out: inhibition percentage of 3CL^pro): 85.4% | Survival rate of A549 cells (A549 cells; 1.5625 nM): 98.43% | Survival rate of A549 cells (A549 cells; 3.125 nM): 96.76% | Survival rate of A549 cells (A549 cells; 6.25 nM): 96.86% | Survival rate of A549 cells (A549 cells; 12.5 nM): 96.42% | Survival rate of A549 cells (A549 cells; 25 nM): 95.19% | Survival rate of A549 cells (A549 cells; 50 nM): 93.96% | Survival rate of A549 cells (A549 cells; 100 nM): 93.51% | Survival rate of A549 cells (A549 cells; 200 nM): 92.13% | Survival rate of A549 cells (A549 cells; 400 nM): 89.12% | Survival rate of HEK293 cells (HEK293 cells; 1.5625 nM): 93.44% | Survival rate of HEK293 cells (HEK293 cells; 3.125 nM): 92.73% | Survival rate of HEK293 cells (HEK293 cells; 6.25 nM): 91.16% | Survival rate of HEK293 cells (HEK293 cells; 12.5 nM): 89.80% | Survival rate of HEK293 cells (HEK293 cells; 25 nM): 85.34% | Survival rate of HEK293 cells (HEK293 cells; 50 nM): 82.99% | Survival rate of HEK293 cells (HEK293 cells; 100 nM): 82.76% | Survival rate of HEK293 cells (HEK293 cells; 200 nM): 78.93% | Survival rate of HEK293 cells (HEK293 cells; 400 nM): 77.46% | Survival rate of HepG2 cells (HepG2 cells; 1.5625 nM): 96.16% | Survival rate of HepG2 cells (HepG2 cells; 3.125 nM): 94.78% | Survival rate of HepG2 cells (HepG2 cells; 6.25 nM): 93.92% | Survival rate of HepG2 cells (HepG2 cells; 12.5 nM): 91.45% | Survival rate of HepG2 cells (HepG2 cells; 25 nM): 88.16% | Survival rate of HepG2 cells (HepG2 cells; 50 nM): 87.52% | Survival rate of HepG2 cells (HepG2 cells; 100 nM): 83.43% | Survival rate of HepG2 cells (HepG2 cells; 200 nM): 82.56% | Survival rate of HepG2 cells (HepG2 cells; 400 nM): 77.32%

Cn1cc2cc(/N=c3\[nH]c(=O)n(Cc4nnn[nH]4)c(=O)n3Cc3cc(F)cc(F)c3)c(Cl)cc2n1 [Compound 15]
IC50 (SARS-CoV-2 3CL^pro; [1]): < 200 nM | IC50 (SARS-CoV-2 3CL^pro; [2]): < 200 nM

CC(C)Cn1nnnc1Cn1c(=O)[nH]/c(=N\c2cc3cn(C)nc3cc2Cl)n(Cc2cc(F)c(F)cc2F)c1=O [Compound 24]
IC50 (SARS-CoV-2 3CL^pro; [1]): > 1000 nM

Cn1cc2cc(Nc3nc(=O)n(Cc4nnn[nH]4)c(=O)n3Cc3ccc(C(F)(F)F)cc3)c(Cl)cc2n1 [Compound 8, (E)-3-(1H-tetrazol-5-yl)methyl)-6-(6-chloro-2-methyl-2H-indazol-5-yl)imino)-1-(4-(trifluoromethyl)benzyl)-1,3,5-triazin-2,4-dione]
IC50 (SARS-CoV-2 3CL^pro; [1]): 500 to 1000 nM
